Data on 1 molecule can be found in ChEMBL document CHEMBL5579832, “Design, synthesis, and biological evaluation of pyrido[2,3-d]pyrimidin-7(8H)-one derivatives as potent USP1 inhibitors” (Eur J Med Chem, 2024).

Experiment [1] has as its target T1, Ubiquitin carboxyl-terminal hydrolase 15 (Homo sapiens) (UniProt Q9Y4E8).
T1 sequence (whole entry): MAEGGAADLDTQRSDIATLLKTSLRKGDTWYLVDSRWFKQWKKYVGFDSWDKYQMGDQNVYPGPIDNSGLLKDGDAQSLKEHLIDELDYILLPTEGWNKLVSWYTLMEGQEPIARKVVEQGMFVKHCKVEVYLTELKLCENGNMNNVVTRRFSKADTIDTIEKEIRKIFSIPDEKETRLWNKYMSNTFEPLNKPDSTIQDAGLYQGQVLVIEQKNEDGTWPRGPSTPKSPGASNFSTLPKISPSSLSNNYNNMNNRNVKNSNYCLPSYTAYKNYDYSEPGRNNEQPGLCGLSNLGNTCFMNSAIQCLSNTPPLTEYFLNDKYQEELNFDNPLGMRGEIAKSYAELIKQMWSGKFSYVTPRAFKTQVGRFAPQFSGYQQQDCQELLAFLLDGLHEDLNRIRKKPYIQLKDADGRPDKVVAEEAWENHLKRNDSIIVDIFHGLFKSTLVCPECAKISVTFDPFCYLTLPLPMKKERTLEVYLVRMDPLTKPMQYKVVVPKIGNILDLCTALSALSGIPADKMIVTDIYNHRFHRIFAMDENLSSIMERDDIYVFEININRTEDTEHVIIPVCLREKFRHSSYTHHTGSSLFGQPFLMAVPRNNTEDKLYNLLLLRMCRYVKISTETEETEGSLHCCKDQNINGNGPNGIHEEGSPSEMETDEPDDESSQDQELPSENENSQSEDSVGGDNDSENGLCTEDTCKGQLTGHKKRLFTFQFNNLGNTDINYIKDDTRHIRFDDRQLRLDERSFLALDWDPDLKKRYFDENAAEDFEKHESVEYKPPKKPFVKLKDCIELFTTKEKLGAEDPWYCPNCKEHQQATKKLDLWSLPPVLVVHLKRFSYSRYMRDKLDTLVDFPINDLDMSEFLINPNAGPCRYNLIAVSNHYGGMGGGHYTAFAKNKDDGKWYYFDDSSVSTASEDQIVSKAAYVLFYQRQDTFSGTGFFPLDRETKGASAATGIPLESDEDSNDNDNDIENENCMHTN
In words: Inhibition of recombinant human 6His-tagged USP15 using diubiquitin as a substrate at 0 to 10 uM preincubated for 15 mins followed by substrate addition and measured after 2 hrs by SDS-PAGE analysis. The conditions noted are these: dose 0-10 µM, time 135.0 min.

Experiment [2] relates to Olaparib-resistant MDA-MB-436. Briefly: Inhibition of colony formation in human Olaparib-resistant MDA-MB-436 cell at 100 nM measured after 7 days in the presence of olaparib by SRB staining based assay relative to control. The class given is functional. The note with it: Olaparib-resistant MDA-MB-436, 168 h, time 7 day. (In general: Sulforhodamine B stains cellular protein and so reports cell mass.)

Molecules are shown by their SMILES. The source made the active and inactive calls. No cut-off for these calls is given here.

For the molecule `COc1ncnc(C2CC2)c1-c1ncc2ccc(=O)n(Cc3ccc(-c4nc(C(F)(F)F)cn4C(C)C)cc3)c2n1`, the inhibition entry in experiment [1] was “inactive”. The inhibition at 0.1 µM in experiment [2] was 50%.

By inhibition is commonly meant the share of the control response that was lost under treatment.
